Source: patent US20150315241A1, “Antibiotic Peptides” (priority 2007, published 2015)
Values after ≈ are worked out from the molar mass of the structure shown. Where a SMILES comes first, the peptide text is derived from it. [ ]: non-standard residue; d: D form. Hyp = O=C(O)[C@@H]1C[C@@H](O)CN1; Orn = NCCC[C@H](N)C(=O)O

Key:
[1] = test system: S. enterica subsp. Enterica serovar. typhi G10215 ATCC 700408; assay type: cell-based, Salmonella enterica; conditions: ATCC 700408, 20 h
Outline: (§1)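 MIC by growth inhibition: overnight NB culture → 5×10^6 CFU/mL in 1% TSB; peptide 2-fold series, final 125 μg/mL to 60 ng/mL; 37° C., 20 hrs; OD595. n=3.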

K. pneumonia 681 = assay type: cell-based, Klebsiella pneumoniae; conditions: 20 h
Outline: (§2)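 Two-fold serial dilution in 1% TSB, final 125 μg/mL to 60 ng/mL; inoculum 5×10^6 CFU/mL (before 1:1 mixing with peptide). Incubated 20 hrs at 37° C., growth read as absorbance at 595 nm, in triplicate with sterile water as negative control.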

S. typhi S5 = assay type: cell-based, Salmonella typhi; conditions: S5, 20 h
Outline: as §1

Mycobacterium vaccae = assay type: cell-based; conditions: 20 h
Method: The minimal inhibition concentrations (MIC) of the apidaecin-derived peptides and peptide-derivatives were determined by a growth inhibition assay using a serial peptide dilution in sterilized round-bottom 96-well plates (polystyrene, U-bottom, Greiner Bio-One GmbH) with a final volume of 100 μL per well. The bacteria, e.g., E. coli BL21 A1, were grown in nutrient broth (NB, Carl Roth GmbH+Co. KG, Karlsruhe, Germany) at 37° C. over night. To each well of the 96-well plate, 50 μL of the overnight culture adjusted to 5×10^6 CFU/mL in 1% TSB were added. Lyophilized peptides and peptidomimetics were dissolved in 1% TSB (tryptic soy broth) or water to give a final concentration of 250 μg/mL. Fifty μL of the peptide or peptidomimetics solution were added to the first well of a row on the plate and mixed. Fifty μL of the first well containing the peptide solution were transferred to the second well, mixed and again 50 μL transferred to the next well and so on. Thereby, a two-fold dilution series was obtained starting at 250 μg/mL in the first well down to 120 ng/mL in the 12th well of a row giving a final peptide or peptidomimetics concentration from 125 μg/mL (well 1) to 60 ng/mL (well 12). Plates were incubated at 37° C. for 20 hrs. The absorbance was measured at 595 nm using a TECAN micro plate spectrophotometer (Tecan, Germany). All peptides and peptidomimetics were measured in triplicates. Sterilized water was used as a negative control.
The bacteria strains were tested: • Eschericha coli 1103, 10233, BL 21 AI, DC 2, • Klebsiella pneumoniae 681, • Micrococcus luteus ATCC 10240, • Mycobacterium vaccae • Bactillus subtillis 347.

E. coli 1103 = assay type: cell-based, Escherichia coli; conditions: 1103, 20 h
Outline: as §2

B. subtilis 347 = assay type: cell-based, Bactillus subtillis; conditions: 347, 20 h
Outline: as §2

M. luteus ATCC 10240 = assay type: cell-based, Micrococcus luteus; conditions: ATCC 10240, 20 h
Outline: as §2

E. coli D31 = assay type: cell-based, Escherichia coli; conditions: D31, 20 h
Outline: as §1

E. coli DC 2 = experiment: Growth inhibition assay (MIC); assay type: cell-based, Escherichia coli; conditions: 1% TSB, 37° C., 20 hrs
Outline: as §2

E. coli BL 21 AI = experiment: Growth inhibition assay (MIC); assay type: cell-based, Escherichia coli; conditions: 1% TSB, 37° C., 20 hrs
Outline: as §2

Compound	MIC S. enterica subsp. Enterica serovar. typhi G10215 ATCC 700408 [1] [µg/mL]	MIC K. pneumonia 681 (K. pneumonia 681) [µg/mL]	MIC S. typhi S5 (S. typhi S5) [µg/mL]	MIC Mycobacterium vaccae (Mycobacterium vaccae) [µg/mL]	MIC E. coli 1103 (E. coli 1103) [µg/mL]	MIC B. subtilis 347 (B. subtilis 347) [µg/mL]	MIC M. luteus ATCC 10240 (M. luteus ATCC 10240) [µg/mL]	MIC E. coli D31 (E. coli D31) [µg/mL]	MIC E. coli DC 2 (E. coli DC 2) [µg/mL]	MIC E. coli BL 21 AI (E. coli BL 21 AI) [µg/mL]
CC[C@H](C)[C@H](NC(=O)[C@H](CCCNC(=N)N)NC(=O)[C@@H]1CCCN1C(=O)[C@H](Cc1c[nH]cn1)NC(=O)[C@@H]1CCCN1C(=O)[C@@H]1CCCN1C(=O)[C@H](CCCNC(=N)N)NC(=O)[C@@H]1C[C@@H](O)CN1C(=O)[C@H](CCCNC(=N)N)NC(=O)[C@@H]1CCCN1C(=O)[C@@H](NC(=O)[C@H](Cc1ccc(O)cc1)NC(=O)[C@@H](NC(=O)[C@@H]1CCCN1C(=O)[C@H](CCCNC(=N)N)NC(=O)[C@H](CC(N)=O)NC(=O)[C@H](CC(N)=O)NC(=O)CN)C(C)C)[C@@H](C)CC)C(N)=O [compound 15] (H-GNNRPVYIPR[Hyp]RPPHPRI-NH2)	2 (≈ 0.93 µM)	3.9 (≈ 1.81 µM)	2 (≈ 0.93 µM)	125 (≈ 58.1 µM)	1.95 (≈ 0.906 µM)	>125	1.95 (≈ 0.906 µM)	64 (≈ 29.7 µM)	–	–
CC[C@H](C)[C@H](NC(=O)[C@H](CCCNC(=N)N)NC(=O)[C@@H]1CCCN1C(=O)[C@H](Cc1c[nH]cn1)NC(=O)[C@@H]1CCCN1C(=O)[C@@H]1CCCN1C(=O)[C@H](CCCNC(=N)N)NC(=O)[C@@H]1CCCN1C(=O)[C@H](CCCNC(=N)N)NC(=O)[C@@H]1CCCN1C(=O)[C@@H](NC(=O)[C@H](Cc1ccc(O)cc1)NC(=O)[C@@H](NC(=O)[C@@H]1CCCN1C(=O)[C@H](CCCNC(=N)N)NC(=O)[C@H](CC(N)=O)NC(=O)[C@H](CC(N)=O)NC(=O)[C@H](CCCN)NC(C)=O)C(C)C)[C@@H](C)CC)C(N)=O [compound 65] (Ac-[Orn]NNRPVYIPRPRPPHPRI-NH2)	–	7.81 (≈ 3.49 µM)	–	62.5 (≈ 28 µM)	1.95 (≈ 0.873 µM)	125 (≈ 55.9 µM)	0.98 (≈ 0.439 µM)	–	7.81 (≈ 3.49 µM)	0.98 (≈ 0.439 µM)
Ac-GNNRPVYIPRPRPPHPRL-NH2 [compound 67]	–	3.9	–	125	3.9	125	1.95	–	3.9	3.91
H-GNNKPVYIPRPRPPHPRLV-NH2 [compound 68]	–	31.25	–	125	3.9	>125	0.24	–	7.81	7.81
H-GNNRPVYIPRPRPPHPRL-NH2 [compound 66]	–	3.9	–	125	3.9	62.5	1.95	–	1.95	1.95
